Data from BindingDB's records for doi:10.7270/Q28G8J4C (Broad Institute, 2009).

target: T1, POsterior Segregation (Caenorhabditis elegans, UniProt G5EF15); assay: disruptors of C. elegans POS-1 RNA interaction – biochemical, fluorescence polarization, dose response (AID 1964)
T1 sequence (G5EF15 whole entry): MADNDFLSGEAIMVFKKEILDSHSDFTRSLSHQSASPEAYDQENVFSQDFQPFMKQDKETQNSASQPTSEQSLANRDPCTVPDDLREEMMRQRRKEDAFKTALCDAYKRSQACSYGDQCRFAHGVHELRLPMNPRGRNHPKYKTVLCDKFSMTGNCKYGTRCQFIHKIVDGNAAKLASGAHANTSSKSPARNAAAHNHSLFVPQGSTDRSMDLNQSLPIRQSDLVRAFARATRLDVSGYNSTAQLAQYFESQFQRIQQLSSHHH

Question: With `COc1ccccc1N1C(=O)NC(=O)C(=Cc2c[nH]c3ccccc23)C1=O` [SMR000495900] as the compound, how does the EC50 read?
Answer: > 300 µM

Question: `CC1=NC(c2ccccc2)C(C#N)(C#N)C(C#N)(C#N)C1` (stereo not drawn) [SMR000037705] was tested. Which EC50 did it give?
Answer: 3.14 µM

Question: `CN(C)c1ccc(NC=C2C(=O)NC(=O)N(CCC3=CCCCC3)C2=O)cc1` [(5Z)-1-[2-(cyclohexen-1-yl)ethyl]-5-[[[4-(dimethylamino)phenyl]amino]methylidene]-1,3-diazinane-2,4,6-trione] was tested. Which EC50 did it give?
Answer: > 300 µM

Question: With `N#CC1C(=N)OC2=C(C(=O)CC(c3ccccc3)C2)C1c1ccc2c(c1)OCO2` (stereo not drawn) as the compound, how does the EC50 read?
Answer: > 300 µM

Question: Which EC50 does the source give for `N#CC1=C2CCOC[C@@H]2[C@@H](c2ccsc2)C(C#N)(C#N)C1=N` [(8R,8aR)-6-amino-8-(3-thienyl)-1,3,8,8a-tetrahydroisochromene-5,7,7-tricarbonitrile] here?
Answer: > 300 µM

Question: With `O=C1N=c2ccc(Br)cc2=C1NNc1nnn[nH]1` [5-bromanyl-3-[2-(2H-1,2,3,4-tetrazol-5-yl)hydrazinyl]indol-2-one] as the compound, how does the EC50 read?
Answer: 14 µM

Question: With `Cc1ccccc1NN=C1C(=O)N(C)c2ccccc21` [MLS001203477] as the compound, how does the EC50 read?
Answer: > 300 µM

Question: Which EC50 does the source give for `Clc1ccc(C2=Nc3ncnn3C(c3ccco3)C2)cc1` (stereo not drawn) here?
Answer: 24.7 µM

Question: Which EC50 does the source give for `COc1cc(C2NC(=S)N=C(C)C2C(=O)OC(C)C)ccc1OC(C)C` (stereo not drawn) [4-(3-methoxy-4-propan-2-yloxyphenyl)-6-methyl-2-sulfanylidene-3,4-dihydro-1H-pyrimidine-5-carboxylic acid propan-2-yl ester] here?
Answer: > 300 µM

Question: With `CCCCCCN1C(=O)C(=CNc2ccccc2N2CCOCC2)C(=O)NC1=S` [MLS000333666] as the compound, how does the EC50 read?
Answer: > 300 µM

Question: For `CC1(C)CC(=O)C2=C(C1)OC(=N)C(C#N)C2c1ccc2c(c1)OCO2` (stereo not drawn) [SMR000514966], which EC50 is on record?
Answer: > 300 µM

Question: For `Cc1ccc(NC=C2SC(=O)c3ccccc32)c(C)c1` [(3Z)-3-[(2,4-dimethylanilino)methylene]isobenzothiophen-1-one], which EC50 is on record?
Answer: > 300 µM

Question: `COc1cccc(CN=Nc2ncnc(N)c2[N+](=O)[O-])c1OC` [(6-amino-5-nitro-pyrimidin-4-yl)-[(2,3-dimethoxybenzylidene)amino]amine] was tested. Which EC50 did it give?
Answer: 18.4 µM

Question: How did the EC50 turn out when `COc1cccc(CN2C(=O)C3(C4=C(CCCC4=O)OC(=N)C3C#N)c3ccccc32)c1` (stereo not drawn) [2-amino-1'-(3-methoxybenzyl)-2',5-dioxo-1',2',5,6,7,8-hexahydrospiro[chromene-4,3'-indole]-3-carbonitrile] was run?
Answer: > 300 µM

Question: For `O=C(O)c1ccc(S(=O)(=O)N=C2C=C(Nc3ccccc3F)C(=O)c3ccccc32)cc1`, which EC50 is on record?
Answer: 117 µM

Question: For `Cc1[nH]n(C(N)=S)c(=O)c1N=Nc1cccc(C(=O)O)c1` [3-[(1-carbamothioyl-3-methyl-5-oxo-4H-pyrazol-4-yl)diazenyl]benzoic acid], which EC50 is on record?
Answer: 35.1 µM

Question: For `COC1=CC([N+](=O)[O-])=CC(/C=N/NC(=O)CC#N)C1=O` (stereo not drawn), which EC50 is on record?
Answer: > 300 µM

Question: For `Cc1sc2ncnc(N=NC(C)c3ccccn3)c2c1C` (stereo not drawn) [5,6-dimethyl-N-(1-pyridin-2-ylethylideneamino)thieno[2,3-d]pyrimidin-4-amine], which EC50 is on record?
Answer: 23.3 µM

Question: `CC1(C)c2[nH]c3ccccc3c2Cc2c(O)n(-c3ccc(F)cc3F)c(=O)n21` [MLS001065879] was tested. Which EC50 did it give?
Answer: > 300 µM

Question: Which EC50 does the source give for `CC1(C)CC(=O)C2=C(C1)OC(=N)C(C#N)C21C(=O)N(CN2CCOCC2)c2ccccc21` (stereo not drawn) [2-amino-2',5-diketo-7,7-dimethyl-1'-(morpholinomethyl)spiro[6,8-dihydrochromene-4,3'-indoline]-3-carbonitrile] here?
Answer: > 300 µM

Question: For `Cc1cc(C=C2C(=O)NC(=O)N(c3ccccc3)C2=O)c(C)n1-c1ccc(F)cc1` [(5Z)-5-[[1-(4-fluorophenyl)-2,5-dimethyl-3-pyrrolyl]methylidene]-1-phenyl-1,3-diazinane-2,4,6-trione], which EC50 is on record?
Answer: 101 µM

Question: Which EC50 does the source give for `O=C(N/N=C/C1C=C(Cl)C=C([N+](=O)[O-])C1=O)c1ccc2c(c1)OCO2` (stereo not drawn) [N'-[(E)-(3-chloranyl-5-nitro-6-oxidanylidene-cyclohexa-2,4-dien-1-ylidene)methyl]-1,3-benzodioxole-5-carbohydrazide] here?
Answer: 127 µM

Question: For `COc1ccccc1N1C(=O)C(=Nc2ccccc2O)C(Cl)C1=O` (stereo not drawn) [3-chloranyl-4-[(2-hydroxyphenyl)amino]-1-(2-methoxyphenyl)pyrrole-2,5-dione], which EC50 is on record?
Answer: 34.7 µM
